Source: ChEMBL document CHEMBL5608196, “1,3,5-Triazine as a promising scaffold in the development of therapeutic agents against breast cancer” (Eur J Med Chem, 2024)

Legend:
[1] = tested on: MCF7; experiment: Anti-cancer activity against human MCF7 cells; assay type: functional, cell-based
[2] = tested on: MDA-MB-231; experiment: Inhibition of cell survival in human MDA-MB-231 cells incubated for 72 hrs by MTT assay; assay type: functional, cell-based; conditions: MDA-MB-231, 72 h
[3] = tested on: MDA-MB-468; experiment: Anticancer activity against human MDA-MB-468 cells assessed as cell growth inhibition incubated for 48 hrs by SRB assay; assay type: functional, cell-based; conditions: MDA-MB-468, 48 h
[4] = tested on: MDA-MB-468; experiment: Anticancer activity against human MDA-MB-468 cells assessed as cell growth inhibition under hypoxia incubated for 48 hrs by SRB assay relative to control; assay type: functional
[5] = tested on: MCF7; experiment: Anti-proliferative activity against human MCF7 cells incubated for 72 hrs by MTT assay; assay type: functional, cell-based; conditions: MCF7, 72 h
[6] = target: T1, Phosphatidylinositol 4,5-bisphosphate 3-kinase catalytic subunit alpha isoform (Homo sapiens, UniProt P42336); experiment: Inhibition of PI3K-alpha (unknown origin)
T1 sequence (P42336 whole entry, canonical isoform): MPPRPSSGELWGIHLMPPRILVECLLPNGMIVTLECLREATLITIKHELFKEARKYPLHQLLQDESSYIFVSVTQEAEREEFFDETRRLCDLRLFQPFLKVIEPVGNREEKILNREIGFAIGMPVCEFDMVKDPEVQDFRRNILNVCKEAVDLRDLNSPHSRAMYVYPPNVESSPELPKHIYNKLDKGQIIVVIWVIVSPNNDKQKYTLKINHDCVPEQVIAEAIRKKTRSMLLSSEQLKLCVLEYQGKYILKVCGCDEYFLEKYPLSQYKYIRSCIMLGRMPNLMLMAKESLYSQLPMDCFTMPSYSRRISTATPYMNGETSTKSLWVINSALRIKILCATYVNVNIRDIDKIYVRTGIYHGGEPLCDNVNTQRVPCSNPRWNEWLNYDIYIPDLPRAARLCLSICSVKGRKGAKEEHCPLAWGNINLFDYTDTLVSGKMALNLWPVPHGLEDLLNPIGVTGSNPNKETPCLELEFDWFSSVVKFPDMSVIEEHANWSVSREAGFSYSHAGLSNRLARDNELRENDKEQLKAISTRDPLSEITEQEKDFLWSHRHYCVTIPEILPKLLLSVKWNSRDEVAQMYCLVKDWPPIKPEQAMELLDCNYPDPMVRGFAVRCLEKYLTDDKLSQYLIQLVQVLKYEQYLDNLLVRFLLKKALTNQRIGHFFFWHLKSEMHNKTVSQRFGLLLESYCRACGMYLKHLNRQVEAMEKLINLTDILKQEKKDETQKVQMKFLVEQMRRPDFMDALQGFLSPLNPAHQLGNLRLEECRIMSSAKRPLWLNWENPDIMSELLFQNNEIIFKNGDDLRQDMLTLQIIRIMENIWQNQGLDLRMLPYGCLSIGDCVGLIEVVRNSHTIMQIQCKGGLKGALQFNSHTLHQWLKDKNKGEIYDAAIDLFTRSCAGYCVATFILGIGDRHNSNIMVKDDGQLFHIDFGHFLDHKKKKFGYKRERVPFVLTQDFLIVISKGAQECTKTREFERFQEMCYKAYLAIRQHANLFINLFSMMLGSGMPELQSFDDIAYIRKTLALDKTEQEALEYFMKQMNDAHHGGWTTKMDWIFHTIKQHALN

[7] = tested on: MDA-MB-468; experiment: Anticancer activity against human MDA-MB-468 cells assessed as cell growth inhibition under normoxia at 10 uM incubated for 48 hrs by SRB assay relative to control; assay type: functional; conditions: read-out: GI
[8] = Inhibition of PI3K (unknown origin); design: species or system Homo sapiens
[9] = tested on: MCF7; experiment: Anticancer activity against human MCF7 cells; assay type: functional, cell-based
[10] = target: T1, Phosphatidylinositol 4,5-bisphosphate 3-kinase catalytic subunit alpha isoform; experiment: Inhibition of PI3K-alpha (unknown origin) at 100 uM relative to control
[11] = tested on: MCF7; experiment: Anti-proliferative activity against human MCF7 cells by MTT assay; assay type: functional, cell-based
[12] = target: Carbonic anhydrase 9 (Homo sapiens, UniProt Q16790); experiment: Inhibition of human CA-IX
[13] = tested on: MCF7; experiment: Anticancer activity against human MCF7 cells incubated for 24 hrs by MTT assay; assay type: functional, cell-based; conditions: MCF7, 24 h
[14] = target: T2, Epidermal growth factor receptor (Homo sapiens, UniProt P00533); experiment: Inhibition of EGFR (unknown origin) using Poly (Glu, Tyr) as substrate at 10 uM incubated for 40 mins in presence of ATP by Kinase-Glo Plus luminescence kinase assay relative to control
T2 sequence (P00533 whole entry): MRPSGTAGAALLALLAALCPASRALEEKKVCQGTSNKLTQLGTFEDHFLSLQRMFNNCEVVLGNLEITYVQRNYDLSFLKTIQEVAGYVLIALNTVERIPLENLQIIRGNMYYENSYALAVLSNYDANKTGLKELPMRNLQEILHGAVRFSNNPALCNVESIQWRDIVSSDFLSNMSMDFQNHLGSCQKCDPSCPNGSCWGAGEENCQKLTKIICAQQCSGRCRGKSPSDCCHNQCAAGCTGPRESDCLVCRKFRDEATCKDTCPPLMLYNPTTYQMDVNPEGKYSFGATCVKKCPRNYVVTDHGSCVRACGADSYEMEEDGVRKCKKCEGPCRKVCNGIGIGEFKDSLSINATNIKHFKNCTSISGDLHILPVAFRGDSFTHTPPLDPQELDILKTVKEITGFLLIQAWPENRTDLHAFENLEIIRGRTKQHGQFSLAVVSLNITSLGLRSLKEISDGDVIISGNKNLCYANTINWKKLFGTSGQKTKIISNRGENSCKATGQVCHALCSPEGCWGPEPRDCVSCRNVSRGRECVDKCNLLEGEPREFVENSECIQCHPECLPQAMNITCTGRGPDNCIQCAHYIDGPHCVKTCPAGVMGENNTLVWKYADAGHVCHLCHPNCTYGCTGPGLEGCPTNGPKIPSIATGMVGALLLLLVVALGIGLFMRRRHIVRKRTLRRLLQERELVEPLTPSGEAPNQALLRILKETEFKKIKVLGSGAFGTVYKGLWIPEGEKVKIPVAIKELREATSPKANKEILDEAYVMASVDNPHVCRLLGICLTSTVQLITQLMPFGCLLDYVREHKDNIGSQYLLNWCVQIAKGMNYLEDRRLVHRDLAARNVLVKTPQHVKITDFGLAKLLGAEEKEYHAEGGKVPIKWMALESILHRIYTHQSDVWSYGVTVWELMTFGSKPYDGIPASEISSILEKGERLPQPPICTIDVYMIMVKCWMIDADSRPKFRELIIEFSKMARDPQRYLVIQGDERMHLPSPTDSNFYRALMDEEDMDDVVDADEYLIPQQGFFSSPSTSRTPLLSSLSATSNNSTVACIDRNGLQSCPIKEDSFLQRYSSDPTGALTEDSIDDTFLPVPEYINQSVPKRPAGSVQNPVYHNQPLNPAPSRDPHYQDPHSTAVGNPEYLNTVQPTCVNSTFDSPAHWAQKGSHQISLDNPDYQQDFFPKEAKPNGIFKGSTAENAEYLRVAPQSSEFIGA

[15] = tested on: MCF7; experiment: Anticancer activity against human MCF7 cells incubated for 24 to 72 hrs by MTT assay; assay type: functional, cell-based
[16] = tested on: MDA-MB-231; experiment: Cytotoxicity against human MDA-MB-231 cells incubated for 72 hrs by MTT assay; assay type: functional, cell-based; conditions: MDA-MB-231, 72 h
[17] = tested on: MCF7; experiment: Anticancer activity against human MCF7 cells incubated for 48 hrs by MTT assay; conditions: MCF7, 48 h
[18] = tested on: MCF7; experiment: Antitumor activity against human MCF7 cells by MTT assay
[19] = target: Serine/threonine-protein kinase mTOR (Homo sapiens, UniProt P42345); experiment: Inhibition of mTOR (unknown origin)
[20] = tested on: MCF7; experiment: Cytotoxicity against human MCF7 cells assessed as cell growth inhibition incubated for 72 hrs by MTT assay; assay type: functional, cell-based; conditions: MCF7, 72 h
[21] = target: T2, Epidermal growth factor receptor; experiment: Inhibition of EGFR (unknown origin)
[22] = tested on: MCF7; experiment: Inhibition of cell viability in human MCF7 cells incubated for 48 hrs by MTT assay; assay type: functional, cell-based; conditions: MCF7, 48 h
[23] = target: T2, Epidermal growth factor receptor; experiment: Inhibition of EGFR (unknown origin) by ELISA
[24] = tested on: MCF7; experiment: Inhibition of cell proliferation of human MCF7 cells incubated for 24 hrs by MTT assay; assay type: functional, cell-based; conditions: MCF7, 24 h
[25] = tested on: MDA-MB-231; experiment: Inhibition of cell proliferation of human MDA-MB-231 cells incubated for 24 hrs by MTT assay; assay type: functional, cell-based; conditions: MDA-MB-231, 24 h
[26] = tested on: MDA-MB-231; experiment: Antiproliferative activity against human MDA-MB-231 cells; assay type: functional, cell-based
[27] = tested on: MCF7; experiment: Cytotoxicity against human MCF7 cells

COc1nc(OC)nc(-c2nc(-c3nnc(-c4cc([N+](=O)[O-])cc([N+](=O)[O-])c4)o3)co2)n1
IC50 [1]: 1340 nM

Nc1nc(COC(=O)c2ccc([N+](=O)[O-])cc2)nc(Nc2ccccc2)n1
IC50 [2]: 6000 nM

N#C/C(=C\c1cccc(F)c1)c1nc(N)nc(Nc2ccc(S(N)(=O)=O)cc2)n1
IC50 [3]: 1480 nM | growth inhibition (GI) [4]: 65%

NCc1ccc(-c2nc(N/N=C/c3ccc(Cl)cc3)nc(N3CCCCC3)n2)cc1
IC50 [5]: 3290 nM

CN(C)C(=O)C1CCC(Oc2nc(-c3cccc4[nH]ncc34)nc(N3CCOCC3)n2)CC1 (stereo unspecified)
IC50 [6]: 60 nM

CN(C)c1ccc(/C=C(\C#N)c2nc(N)nc(Nc3ccc(S(N)(=O)=O)cc3)n2)cc1
inhibition of growth at 10 µM [7]: 62% | IC50 [3]: 1480 nM | growth inhibition (GI) [4]: 60%

FC(F)c1nc2ccccc2n1-c1nc(N2CCOCC2)nc(N2CCOCC2)n1 [ZSTK-474]
IC50 [8]: 37 nM

COc1ccc(Nc2nc(N3CCCC3)nc(-n3nc(C)cc3C)n2)cc1
IC50 [9]: 3760 nM

CC1=NN(c2nc(Nc3ccc(Cl)cc3)nc(-n3nc(C)cc3C)n2)C(C)C1 (stereo unspecified)
IC50 [9]: 2290 nM

CCN(CC)c1nc(Nc2ccc(S(=O)(=O)NC(=N)N)cc2)nc(NN2CCOCC2)n1
IC50 [9]: > 100000 nM | inhibition [10]: 68%

COc1nc(N/N=C/c2ccccc2)nc(-c2ccc(N)cc2)n1
IC50 [11]: 3980 nM

NS(=O)(=O)c1ccc(CNc2nc(Cl)nc(Nc3ccc(O)cc3)n2)cc1
Ki [12]: 0.4 nM

CCOC(=O)C1=CN(c2nc(Nc3cccc(F)c3)nc(Nc3cccc(F)c3)n2)C(=S)NC1c1ccc(F)cc1 (stereo unspecified)
IC50 [13]: 41500 nM | inhibition [14]: 96.4%

CNc1nc(Nn2c(C)nc3ccc(Br)cc3c2=O)nc(N2CCNCC2)n1
IC50 [15]: 9520 nM

COc1ccc(/C=N/NC(=O)Nc2ccc(-c3nc(N4CCOCC4)nc(N4CCOCC4)n3)cc2)cc1
IC50 [16]: 520 nM

C=CCc1cc(C)cc(/C=N/NC(=O)Nc2ccc(-c3nc(N4CCOCC4)nc(N4CCOCC4)n3)cc2)c1O
IC50 [16]: 600 nM

COc1cc(OC)cc(-c2nnc(-c3coc(-c4nc(OC)nc(OC)n4)n3)o2)c1
IC50 [1]: 110 nM

CC1=NN(c2nc(Nc3ccc(Br)cc3)nc(-n3nc(C)cc3C)n2)C(C)C1 (stereo unspecified)
IC50 [9]: 2660 nM

Cc1nc2cc(Br)c(Br)cc2c(=O)n1-c1ccc(Nc2nc(Nc3ccc(Br)cc3)nc(N3CCCCC3)n2)cc1
IC50 [17]: 17800 nM

CS(=O)(=O)N1CCN(Cc2ccc(-c3nc(-c4cnc(N)nc4)nc(N4CCOCC4)n3)s2)CC1
IC50 [18]: 1250 nM | IC50 [19]: 48 nM

CN(C)c1ccc(-c2nc(N)nc(Nc3ccccc3F)n2)cc1
IC50 [20]: > 20000 nM

CCOC(=O)C1=CN(c2nc(Nc3cccc(F)c3)nc(Nc3cccc(F)c3)n2)C(=S)NC1c1ccccc1OC (stereo unspecified)
IC50 [13]: 47400 nM | inhibition [14]: 94.3%

O=[N+]([O-])c1ccc(Nc2nc(NC(=S)NNc3ccnc4ccccc34)nc(Nc3ccc([N+](=O)[O-])cc3)n2)cc1
inhibition [14]: 96.3% | IC50 [17]: 52200 nM

NCc1ccc(-c2nc(N/N=C/c3ccc(Br)cc3)nc(N3CCCCC3)n2)cc1
IC50 [11]: 4630 nM

CCN(CC)c1nc(NC(=S)NNc2ccnc3ccccc23)nc(N(CC)CC)n1
inhibition [14]: 90.5% | IC50 [17]: 32300 nM

CCN(CC)c1nc(Nc2ccc(S(=O)(=O)NC(=N)N)cc2)nc(NC2CCCCC2)n1
IC50 [9]: 18400 nM

COc1nc(OC)nc(-c2nc(-c3nnc(-c4cc(OC)c(OC)c(OC)c4)o3)co2)n1
IC50 [1]: 25 nM

Cc1cc(/C=N/NC(=O)Nc2ccc(-c3nc(N4CCOCC4)nc(N4CCOCC4)n3)cc2)cc(C)c1O
IC50 [16]: 400 nM

Cc1cc(C)n(-c2nc(Nc3ccc(Br)cc3)nc(N3CCOCC3)n2)n1
IC50 [9]: 4530 nM | IC50 [21]: 61 nM

Cc1nc2cc(Br)c(Br)cc2c(=O)n1-c1ccc(Nc2nc(N3CCCCC3)nc(N3CCOCC3)n2)cc1
IC50 [17]: 17200 nM

CN(C)c1nc(Cl)nc(NC2=NN(c3ccc(Br)cc3)C(c3ccc(C(F)(F)F)cc3)C2)n1 (stereo unspecified)
IC50 [22]: 12.8 nM | IC50 [23]: 287 nM

Nc1ncc(-c2nc(-c3ccc(CN4CCOCC4)s3)nc(N3CCOCC3)n2)cn1
IC50 [18]: 2650 nM | IC50 [19]: 69 nM

Cc1nc2cc(Br)c(Br)cc2c(=O)n1-c1ccc(Nc2nc(Nc3ccc(Cl)cc3)nc(N3CCCCC3)n2)cc1
IC50 [17]: 18400 nM

COc1nc(Nc2ccc(C#N)cc2)nc(N2CCOCC2)n1
IC50 [24]: 4290 nM | IC50 [25]: 7800 nM

Cc1nc2ccc(Br)cc2c(=O)n1Nc1nc(Nc2cccc(Cl)c2)nc(N2CCNCC2)n1
IC50 [15]: 7160 nM

Cc1nc2ccc(Br)cc2c(=O)n1Nc1nc(Nc2ccc([N+](=O)[O-])cc2)nc(N2CCNCC2)n1
IC50 [15]: 9540 nM

COc1ccc(Nc2nc(N3CCOCC3)nc(-n3nc(C)cc3C)n2)cc1
IC50 [9]: 2930 nM

CC1CCN(c2nc(Cl)nc(Oc3ccc(-c4coc5cc(Oc6nc(Cl)nc(N7CCC(C)CC7)n6)cc(O)c5c4=O)cc3)n2)CC1
IC50 [26]: 23100 nM

CCN(CC)c1nc(Nc2ccccc2)nc(Nc2ccc(S(=O)(=O)NC(=N)N)cc2)n1
IC50 [9]: 17500 nM

COc1cc(-c2nc(N)nc(Nc3ccc(C)cc3)n2)cc(OC)c1OC
IC50 [20]: > 20000 nM

COc1nc(Nc2ccc(C#N)cc2)nc(-c2ccc(N)cc2)n1
IC50 [24]: 770 nM | IC50 [25]: 8430 nM

COc1nc(OC)nc(-c2nc(-c3nnc(-c4cc([N+](=O)[O-])c(Br)c([N+](=O)[O-])c4)o3)co2)n1
IC50 [1]: 95 nM

CNC(=O)Nc1ncc(-c2nc(-c3ccc(CN4CCN(S(C)(=O)=O)CC4)s3)nc(N3CCOCC3)n2)cn1
IC50 [19]: 10.9 nM | IC50 [27]: 30 nM

C(=N\Nc1nc(N2CCOCC2)nc(N2CCOCC2)n1)/c1ccccc1
IC50 [5]: 1000 nM

CN(C)c1nc(Cl)nc(NC2=NN(c3ccc(C(F)(F)F)cc3)C(c3ccc(C(F)(F)F)cc3)C2)n1 (stereo unspecified)
IC50 [22]: 70.7 nM | IC50 [23]: 229 nM
